The results in this text go back to patent publication US20230322776A1, “NEW ARYL-PYRIDO-PYRIMIDIN-ONE DERIVATIVES” (Hoffmann-La Roche Inc., priority 2020, published 2023).

The target in test [1] is BRAF (Homo sapiens, UniProt P15056). As to the kind of experiment: KD BRAF (Table 1; no method described). In kind it is binding.
Test [2] concerns HCT116 cells (WT BRAF), ERK phospho-T202/Y204. As to the kind of experiment: HTRF assay for P-ERK determination in HCT116 cells (BRAF activation, paradox). In kind it is cell-based. The following applies: for EC50: Homo sapiens, HCT-116, HCT116 cells, 1 hour drug incubation, activation relative to maximum Dabrafenib-mediated activation (100%), top concentration 10 μM, read-out: P-ERK_HCT-116: EC50—50PCT; for Fold Selectivity HCT-116 EC50-50/ A375: ratio of P-ERK HCT-116 EC50-50PCT to P-ERK A375 IC50. The text has this:
(§1) A375 is a cellular cancer model expressing V600E mutated BRAF and HCT116 a cellular cancer model expressing WT BRAF. First generation BRAF inhibitors such as e.g. dabrafenib induce a paradox effect on tumour cells in that they inhibit the growth of V600E mutated BRAF cells (such as e.g. A375), while they activate growth in WT BRAF cells (such as e.g. HCT 116). ERK 1,2 phosphorylation (terminal member of the phosphorylation cascade of the MAPK pathway) is hereafter reported as main readout for the activation status of the MAPK pathway. DMEM no-phenol red medium supplemented with L-glutamine was purchased from (Thermo Fisher Scientific). Fetal bovine serum (FBS) was purchased from VWR. Advanced ERK phospho-T202/Y204 kit—10,000 tests was purchased from Cisbio cat #64AERPEH. A375 (catalog #CRL-1619) and HCT116 (catalog #CCL-247) cells were originally obtained from American type Culture Collection (ATCC) and banked by the Roche repository. 384-Well microplates ultized were purchased from Greiner Bio-One, 384-well, (With Lid, HiBase, Low volume cat 784-080).
(§2) HTRF Assay for P-ERK Determination in A375 or HCT116 Cells
(§3) Prior to the assay, A375 and HCT116 cell lines are maintained in DMEM no-phenol red medium supplemented with 10% fetal bovine serum (FBS). Following compound treatment, P-ERK levels are determined by measuring FRET fluorescence signal induced by selective binding of two antibodies provided in the mentioned kit (Cisbio cat #64AERPEH) on ERK protein when phosphorylated at Thr202/Tyr204. Briefly, 8000 cells/well in 12 μl media/well are plated in the 384-well plate and left overnight in the incubator (at 37° C. with 5% CO2-humidified atmosphere), the following day the plate is treated in duplicate with test compounds, dabrafenib and PLX8394 (the latter two as controls) at the following final drug concentrations: 10 μM, 3 μM, 1 μM, 0.3 μM, 0.1 μM, 0.03 μM, 0.01 μM, 0.003 μM and 0.001 μM. All wells are subjected to DMSO normalization and drug incubation occurs for 1 hour. Then, 4 μl of a 4× lysis buffer supplied with the kit are added to the wells, the plate is then centrifuged for 30 second (3000 rpm) and incubated on a plate shaker for 1 h at rt.
(§4) At the end of the incubation 4 μl/well of advanced P-ERK antibody solution (prepared according to manufacturer's instruction) followed by 4 μl/well of criptate P-ERK antibody solution (prepared according to manufacturer's instruction) (Cisbio cat #64AERPEH) are added to test wells.
(§5) In order to allow proper data normalization, control wells non drug treated reported in the following table are always included in each plate (according to manufacturer's instruction):
(§6) The plate is then centrifuged at 3000 rpm for 30 seconds, sealed to prevent evaporation and incubated overnight in the dark at room temperature. The plate is then analyzed and fluorescence emission value collected through a Pherastast FSX (BMG Labtech) apparatus at […]. The obtained fluorescence values are processed according to the formula Ratio=[…]*10000 then the average of the ratio on the blank is subtracted to all values.
Data are normalized in the case of HCT116 cells (BRAF activation) considering the average of the ratio (blank subtracted) derived by DMSO only treated cells as 0% and by considering the average of the ratio (blank subtracted) derived by Dabrafenib treated cells at the concentration which provides the highest signal as 100%. Individual points are fitted with either sigmoidal or bell shape curves, the percentage of activation compared to maximum Dabrafenib-mediated activation is determined.
In general terms: In TR-FRET formats the signal depends on donor and acceptor labels being close together.

In test [3] the target is BRAF V660E (Homo sapiens, UniProt P15056, V600E). The experiment in a line: KD BRAF V660E (Table 1; no method described). In kind it is binding.
BRAF V660E, sequence (P15056 2-766 V600E): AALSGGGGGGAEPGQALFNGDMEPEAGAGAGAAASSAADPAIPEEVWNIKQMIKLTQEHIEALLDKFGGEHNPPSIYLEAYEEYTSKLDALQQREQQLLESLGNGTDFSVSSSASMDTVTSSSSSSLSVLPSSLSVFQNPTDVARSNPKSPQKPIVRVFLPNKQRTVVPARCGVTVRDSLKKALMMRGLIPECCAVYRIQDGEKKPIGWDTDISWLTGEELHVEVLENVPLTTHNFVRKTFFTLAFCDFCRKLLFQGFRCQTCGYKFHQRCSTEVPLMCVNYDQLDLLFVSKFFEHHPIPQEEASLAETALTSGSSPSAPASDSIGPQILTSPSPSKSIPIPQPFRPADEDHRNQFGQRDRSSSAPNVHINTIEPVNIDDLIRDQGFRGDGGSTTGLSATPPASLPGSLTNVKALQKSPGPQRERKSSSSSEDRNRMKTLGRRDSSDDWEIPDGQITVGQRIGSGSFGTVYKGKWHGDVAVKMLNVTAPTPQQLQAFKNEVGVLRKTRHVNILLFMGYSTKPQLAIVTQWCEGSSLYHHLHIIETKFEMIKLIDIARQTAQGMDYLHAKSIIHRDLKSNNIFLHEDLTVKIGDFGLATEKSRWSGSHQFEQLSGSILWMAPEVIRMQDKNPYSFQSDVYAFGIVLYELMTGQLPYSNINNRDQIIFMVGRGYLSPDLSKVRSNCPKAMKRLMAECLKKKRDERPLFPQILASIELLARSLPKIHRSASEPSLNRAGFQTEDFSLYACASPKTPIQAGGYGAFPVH
In test [4] the test system is A375 cells (V600E mutated BRAF), ERK phospho-T202/Y204. As to the kind of experiment: HTRF assay for P-ERK determination in A375 cells (BRAF inhibition). The following applies: Homo sapiens, A-375, 1 hour drug incubation, DMSO = 100%, 10 μM Dabrafenib = 0%, top concentration 10 μM, read-out: P-ERK_A375: IC50. In kind it is cell-based.
Source text: as §1, §2, §3, §4, §5, §6
Data are normalized in the case of A375 cells (BRAF inhibition) considering the average of the ratio (blank subtracted) derived by DMSO only treated cells as 100% and by considering the average of the ratio (blank subtracted) derived by 10 μM Dabrafenib treated cells as 0%. Mean of the normalized points are fitted with sigmoidal curve and IC50 values are determined.

BRAF, sequence (P15056 whole entry): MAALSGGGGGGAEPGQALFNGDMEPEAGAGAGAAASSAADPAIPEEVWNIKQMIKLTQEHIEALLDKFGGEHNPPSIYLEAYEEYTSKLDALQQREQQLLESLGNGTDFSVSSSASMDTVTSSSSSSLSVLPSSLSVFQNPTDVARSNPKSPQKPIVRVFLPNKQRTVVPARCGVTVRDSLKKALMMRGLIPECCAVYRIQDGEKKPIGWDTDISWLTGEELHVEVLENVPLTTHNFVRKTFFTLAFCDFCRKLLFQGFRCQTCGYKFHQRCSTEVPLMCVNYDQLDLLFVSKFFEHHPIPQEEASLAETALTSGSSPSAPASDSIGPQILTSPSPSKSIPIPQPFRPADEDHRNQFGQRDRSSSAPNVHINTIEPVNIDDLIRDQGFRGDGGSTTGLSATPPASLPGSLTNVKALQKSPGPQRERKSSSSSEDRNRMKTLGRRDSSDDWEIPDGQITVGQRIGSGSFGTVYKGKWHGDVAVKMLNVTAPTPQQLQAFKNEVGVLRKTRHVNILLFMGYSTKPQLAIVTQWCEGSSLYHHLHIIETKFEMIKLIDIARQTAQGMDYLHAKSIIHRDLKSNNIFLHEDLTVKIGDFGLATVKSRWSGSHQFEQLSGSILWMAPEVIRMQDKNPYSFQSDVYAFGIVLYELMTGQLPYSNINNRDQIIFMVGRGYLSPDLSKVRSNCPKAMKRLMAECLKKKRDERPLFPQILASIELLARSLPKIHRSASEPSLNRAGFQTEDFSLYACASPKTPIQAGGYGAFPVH

On to `CC(C)(C)OC(=O)N1CCC(n2c(=O)c(-c3c(F)ccc(NS(=O)(=O)N4CC[C@@H](F)C4)c3F)cc3cnc(NCC4CC4)nc32)C1` (mixture of isomers) [Example 38, tert-Butyl (3RS)-3-[2-(cyclopropylmethylamino)-6-[2,6-difluoro-3-[[(3R)-3-fluoropyrrolidin-1-yl]sulfonylamino]phenyl]-7-oxopyrido[2,3-d]pyrimidin-8-yl]pyrrolidine-1-carboxylate], for which the Kd (as a rule, the constant that tells how readily two partners part at equilibrium) in test [1] was found to be 1420 nM. Besides, in test [2], the EC50 (usually the concentration needed to bring the measured effect to its halfway point) was not below 10000 nM and the “Fold Selectivity HCT-116 EC50-50/ A375” value was 12.1. Besides, the Kd in test [3] is 2820 nM. In addition, the IC50 (as a rule, the concentration that gives 50% inhibition) in test [4] was found to be 826 nM.
Take `Cl.O=c1c(-c2c(F)ccc(NS(=O)(=O)N3CC[C@@H](F)C3)c2F)cc2cnc(NCC3CC3)nc2n1C1CCNC1` (mixture of isomers) [Example 40, (3R)-N-[3-[2-(cyclopropylmethylamino)-7-oxo-8-[(3RS)-pyrrolidin-3-yl]pyrido[2,3-d]pyrimidin-6-yl]-2,4-difluorophenyl]-3-fluoropyrrolidine-1-sulfonamide hydrochloride]: the Kd in test [1] came out at 145 nM. In test [2], the EC50 is not below 10000 nM and the “Fold Selectivity HCT-116 EC50-50/ A375” value amounted to 2.6. The same compound yielded a Kd in test [3] of 408 nM. Also, in test [4], the IC50 came out at 3810 nM.
With `CC(=O)N1CCC(n2c(=O)c(-c3c(F)ccc(NS(=O)(=O)N4CC[C@@H](F)C4)c3F)cc3cnc(NCC4CC4)nc32)C1` (mixture of isomers) [Example 42, (3R)-N-[3-[8-((3RS)-1-acetylpyrrolidin-3-yl)-2-(cyclopropylmethylamino)-7-oxopyrido[2,3-d]pyrimidin-6-yl]-2,4-difluorophenyl]-3-fluoropyrrolidine-1-sulfonamide], the Kd in test [1] stood at 22.6 nM. For the same compound, in test [2], the EC50 came out at 4840 nM and the “Fold Selectivity HCT-116 EC50-50/ A375” value was 12.8. Besides, in test [3], binding was put at a Kd of 50.4 nM. Moreover, the IC50 in test [4] came to 378 nM.
With `CC(=O)N[C@@H]1CC[C@@H](Nc2ncc3cc(-c4c(F)ccc(NS(=O)(=O)N5CC[C@@H](F)C5)c4F)c(=O)n(C)c3n2)C1` (racemic) [Example 23, N-[(1R,3R)-3-[[6-[2,6-difluoro-3-[[(3R)-3-fluoropyrrolidin-1-yl]sulfonylamino]phenyl]-8-methyl-7-oxopyrido[2,3-d]pyrimidin-2-yl]amino]cyclopentyl]acetamide AND N-[(1S,3S)-3-[[6-[2,6-difluoro-3-[[(3R)-3-fluoropyrrolidin-1-yl]sulfonylamino]phenyl]-8-methyl-7-oxopyrido[2,3-d]pyrimidin-2-yl]amino]cyclopentyl]acetamide], in test [1], the Kd was determined as 7.5 nM. In test [2], the EC50 is 4100 nM and the “Fold Selectivity HCT-116 EC50-50/ A375” value was 59.4. The same compound yielded a Kd in test [3] of 21.1 nM. Further, the IC50 in test [4] came to 69 nM.
For `Cn1c(=O)c(-c2c(F)ccc(NS(=O)(=O)N3CC[C@@H](F)C3)c2F)cc2cnc(NCCC3CCN(C(=O)OC(C)(C)C)CC3)nc21` [Example 1, tert-Butyl 4-[2-[[6-[2,6-difluoro-3-[[(3R)-3-fluoropyrrolidin-1-yl]sulfonylamino]phenyl]-8-methyl-7-oxopyrido[2,3-d]pyrimidin-2-yl]amino]ethyl]piperidine-1-carboxylate], in that order: 108 nM, 3360 nM, 53.1, 190 nM and 63.3 nM.
Regarding `Cn1c(=O)c(-c2c(F)ccc(NS(=O)(=O)N3CC[C@@H](F)C3)c2F)cc2cnc(NCCc3ccccc3)nc21` [Example 2, (3R)-N-[2,4-difluoro-3-[8-methyl-7-oxo-2-(2-phenylethylamino)pyrido[2,3-d]pyrimidin-6-yl]phenyl]-3-fluoropyrrolidine-1-sulfonamide], the Kd in test [1] came out at 7.9 nM. In addition, in test [2], the EC50 was 491 nM and the “Fold Selectivity HCT-116 EC50-50/ A375” value is listed as 81.8. The Kd in test [3] turned out to be 23 nM. Besides, the IC50 in test [4] was determined as 6 nM.
In test [1], `Cn1c(=O)c(-c2c(F)ccc(NS(=O)(=O)N3CC[C@@H](F)C3)c2F)cc2cnc(NCCCC(=O)OC(C)(C)C)nc21` [Example 3, tert-butyl 4-[[6-[2,6-difluoro-3-[[(3R)-3-fluoropyrrolidin-1-yl]sulfonylamino]phenyl]-8-methyl-7-oxopyrido[2,3-d]pyrimidin-2-yl]amino]butanoate] registered a Kd of 15.1 nM. Besides, in test [2], the EC50 was 917 nM and the “Fold Selectivity HCT-116 EC50-50/ A375” value is 69.8. The Kd in test [3] came out at 47.4 nM. In addition, the IC50 in test [4] was 13.1 nM.
In test [1], `Cn1c(=O)c(-c2c(F)ccc(NS(=O)(=O)N3CC[C@@H](F)C3)c2F)cc2cnc(NCCOCCOCCO)nc21` [Example 4, (3R)-N-[2,4-difluoro-3-[2-[2-[2-(2-hydroxyethoxy)ethoxy]ethylamino]-8-methyl-7-oxopyrido[2,3-d]pyrimidin-6-yl]phenyl]-3-fluoropyrrolidine-1-sulfonamide] had a Kd of 39.9 nM. Besides, in test [2], the EC50 was not below 10000 nM and the “Fold Selectivity HCT-116 EC50-50/ A375” value was more than 211.0. The Kd in test [3] was found to be 99 nM. In addition, the IC50 in test [4] worked out at 47.4 nM.
For `Cn1c(=O)c(-c2c(F)ccc(NS(=O)(=O)N3CC[C@@H](F)C3)c2F)cc2cnc(NCCCc3ccccc3)nc21` [Example 5, (3R)-N-[2,4-difluoro-3-[8-methyl-7-oxo-2-(3-phenylpropylamino)pyrido[2,3-d]pyrimidin-6-yl]phenyl]-3-fluoropyrrolidine-1-sulfonamide], the Kd in test [1] is 46.5 nM; in test [3], 115 nM. Moreover, the EC50 in test [2] was determined as 394 nM. The “Fold Selectivity HCT-116 EC50-50/ A375” value in test [2] is reported as 9.2. Moreover, the IC50 in test [4] stood at 42.6 nM.
In the case of `Cn1c(=O)c(-c2c(F)ccc(NS(=O)(=O)N3CC[C@@H](F)C3)c2F)cc2cnc(NCCOc3ccccc3)nc21` [Example 6, (3R)-N-[2,4-difluoro-3-[8-methyl-7-oxo-2-(2-phenoxyethylamino)pyrido[2,3-d]pyrimidin-6-yl]phenyl]-3-fluoropyrrolidine-1-sulfonamide], in test [1], the Kd was determined as 35.7 nM. Further, in test [2], the EC50 is 711 nM and the “Fold Selectivity HCT-116 EC50-50/ A375” value is given as 52.9. Also, the Kd in test [3] turned out to be 120 nM. For the same compound, in test [4], the IC50 came to 13.4 nM.
In the case of `Cn1c(=O)c(-c2c(F)ccc(NS(=O)(=O)N3CC[C@@H](F)C3)c2F)cc2cnc(NCCN3CCN(C(=O)OC(C)(C)C)CC3)nc21` [Example 45, tert-butyl 4-[2-[[6-[2,6-difluoro-3-[[(3R)-3-fluoropyrrolidin-1-yl]sulfonylamino]phenyl]-8-methyl-7-oxopyrido[2,3-d]pyrimidin-2-yl]amino]ethyl]piperazine-1-carboxylate], in test [2], the concentration for a half-maximal effect (EC50) came out at 1480 nM and the “Fold Selectivity HCT-116 EC50-50/ A375” value is 55.1. In addition, the IC50 in test [4] worked out at 26.8 nM.
